From US20100256357A1, “HETEROCYCLES USEFUL AS INHIBITORS OF CARBONIC ANHYDRASE” (Agouron Pharmaceuticals, Inc., priority 2006, published 2010)
Where two headings read alike, the source gives them in different places.

Legend:
[1] = biological target: T1, human CA-II (Homo sapiens, UniProt P00918); assay: Carbonic Anhydrase-II (CA-II) Fluorescence Polarization Tight Binding Assay-Kd Determination; conditions: inhibitor concentration 2.5 nM
T1 construct: purchased Sigma-Aldrich C6165
Experimental: Assays were conducted in a final volume of 100 μL in 50 mM Tris/HCl (pH 7.6), 100 mM Na2SO4 and 0.005% Tween-20 in a 96-well black assay plate. […] The assay plate was
The Kd binding was calculated using GraphPad Prism and Morrison tight binding ligand equation.

[2] = biological target: T1, human CA-II; assay: Carbonic Anhydrase-II (CA-II) Fluorimetric Assay-IC50 Determination; format: biochemical; conditions: for IC50: Kd ND, read-out: CA-II IC50
In short: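 Compounds were tested as an 11-point, 1:3 dilution series in duplicate, with a top final concentration of 1 μM, in 50 mM Tris/HCl pH 7.6, 100 mM Na2SO4 and 0.005% Tween-20. Human CA-II activity was followed as the rate of fluorescein diacetate hydrolysis at 25° C, with excitation at 488 nm and emission at 538 nm.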

[3] = biological target: T2, human CA-IV (Homo sapiens, UniProt P22748); assay: Carbonic Anhydrase-IV (CA-IV) Fluorescence Polarization Assay-IC50 Determination; format: binding; conditions: for inhibition at 0.2 µM: CA-IV Min dose 200 nM, read-out: CA-IV: % Inh @ Min dose; for IC50: read-out: CA-IV IC50
T2 construct: made in house; host or cells: Escherichia coli BL21(DE3)
Experimental: Carbonic Anhydrase-IV (CA-IV) Fluorescence Polarization Assay-IC50 Determination
These cells were grown in Luria broth (LB) media (Biomyx) supplemented with 800 uM ZnCl2 at 37° C. until an O.D.600 of 0.7, at which point the cells were induced with 100 uM isopropyl-beta-D-thiogalactopyranoside (IPTG) for 20 hours at 20° C. The frozen pellet was resuspended in 50mM 2-morpholinoethanesulfonic acid (MES) at pH 6.0, 100 mM NaCl, 800 uM ZnCl2 and EDTA-Free protease inhibitors (Roche). The cells were lysed with a microfluidizer, the lysate was spun at 40,000 rpm for 45 minutes at 4° C., and the soluble fraction was dialyzed overnight at 4° C. in 50 mM MES pH 6.0, and 100 mM NaCl. The soluble fraction was then put over a 100 ml SP-Sepharose High Performance (GE Healthcare) column and eluted with a 50 mM MES pH 6.0, 750 mM NaCl gradient. The peak fractions were then concentrated, via an Amicon Ultra-4 10,000 MWCO (Millipore) spin column to 2.0 mL and loaded onto a Sephacryl S-100 High Resolution (GE Healthcare) column in 25 mM tris(hydroxymethyl)aminomethane hydrochloride (Tris-HCl) pH 7.0, and 100 mM NaCl. The peak fractions were then concentrated, via an Amicon Ultra-4 10,000 MWCO (Millipore) spin column, to 7.0 mg/mL and left exposed at room temperature overnight. […] T.; et al. Carbonic Anhydrase Inhibitors. Med. Res. Rev. […]
Assays were conducted in a final volume of 100 μL in 50 mM Tris/HCl (pH 7.6), 100 mM Na2SO4 and 0.005% Tween-20 in a 96-well black assay plate.

[4] = CA II Min dose 100 nM, read-out: CAII % Inh @ Min dose

T2 sequence (P22748 19-284 limits assumed): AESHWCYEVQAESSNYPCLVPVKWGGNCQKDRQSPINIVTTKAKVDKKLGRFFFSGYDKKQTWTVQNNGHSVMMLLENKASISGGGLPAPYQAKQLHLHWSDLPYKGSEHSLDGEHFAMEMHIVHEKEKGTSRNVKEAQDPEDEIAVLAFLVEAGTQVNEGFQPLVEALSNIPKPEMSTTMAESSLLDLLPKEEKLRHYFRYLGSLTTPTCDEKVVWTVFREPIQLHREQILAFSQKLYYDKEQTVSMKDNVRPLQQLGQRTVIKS

Compound	inhibition at 0.0025 µM [1]	further results
C[C@H](NCc1nc(Cc2ccccc2)n(-c2ccc(S(N)(=O)=O)cc2F)n1)[C@H](O)c1ccccc1 [Example T-50, 4-[5-benzyl-3-({[(1S2R)-2-hydroxy-1-methyl-2-phenylethyl]amino}methyl)-1H-124-triazol-1-yl]-3-fluorobenzenesulfonamide]	63%	–
NS(=O)(=O)c1ccc(-n2nc(CNC3CCCCCC3)nc2Cc2ccccc2)c(F)c1 [Example T-57, 4-(5-benzyl-3-[(cycloheptylamino)methyl]-1H-124-triazol-1-yl}-3-fluorobenzenesulfonamide]	68%	–
CCOc1ccccc1CNCc1nc(Cc2ccccc2)n(-c2ccc(S(N)(=O)=O)cc2F)n1 [Example T-63, 4-(5-benzyl-3-{[(2-ethoxybenzyl)amino]methyl}-1H-124-triazol-1-yl)-3-fluorobenzenesulfonamide]	41%	–
NS(=O)(=O)c1ccc(-n2nc(CNC[C@@H](O)c3ccccc3)nc2Cc2ccccc2)c(F)c1 [Example T-46, 4-[5-benzyl-3-({[(2S)-2-hydroxy-2-phenylethyl]amino}methyl)-1H-124-triazol-1-yl]-3-fluorobenzenesulfonamide]	57%	–
NS(=O)(=O)c1ccc(-n2nc(CNCCOc3ccccc3F)nc2Cc2ccccc2)c(F)c1 [Example T-54]	38%	–
NS(=O)(=O)c1ccc(-n2nc(CNCCc3ccccc3)nc2Cc2ccccc2)c(F)c1 [Example T-61, 4-(5-benzyl-3-{[(2-phenylethyl)amino]methyl}-1H-124-triazol-1-yl)-3-fluorobenzenesulfonamide]	40%	–
COc1ccc(CCNCc2nc(Cc3ccccc3)n(-c3ccc(S(N)(=O)=O)cc3F)n2)cc1 [Example T-62, 4-[5-benzyl-3-({[2-(4-methoxyphenyl)ethyl]amino}methyl)-1H-124-triazol-1-yl]-3-fluorobenzenesulfonamide]	51%	–
C[C@H](CNCc1nc(Cc2ccccc2)n(-c2ccc(S(N)(=O)=O)cc2F)n1)c1ccccc1 [Example T-52, 4-[5-benzyl-3-({[(2S)-2-phenylpropyl]amino}methyl)-1H-124-triazol-1-yl]-3-fluorobenzenesulfonamide]	39%	–
C[C@@H](NCc1nc(Cc2ccccc2)n(-c2ccc(S(N)(=O)=O)cc2F)n1)c1ccccc1 [Example T-65]	58%	–
NS(=O)(=O)c1ccc(-n2nc(CN[C@@H]3COC[C@@H]3C3CC3)nc2Cc2ccccc2)c(F)c1 [Example T-77, 4-[5-benzyl-3-({[(3S4R)-4-cyclopropyltetrahydrofuran-3-yl]amino}methyl)-1H-124-triazol-1-yl]-3-fluorobenzenesulfonamide]	50%	–
Cc1ccn(CCNCc2nc(Cc3ccccc3)n(-c3ccc(S(N)(=O)=O)cc3F)n2)n1 [Example T-68, 4-[5-benzyl-3-({[2-(3-methyl-1H-pyrazol-1-yl)ethyl]amino}methyl)-1H-124-triazol-1-yl]-3-fluorobenzenesulfonamide]	55%	–
NS(=O)(=O)c1ccc(-n2nc(CNC3CCCCC3)nc2Cc2ccccc2)c(F)c1 [Example T-69, 4-{5-benzyl-3-[(cyclohexylamino)methyl]-1H-124-triazol-1-yl}-3-fluorobenzenesulfonamide]	68%	–
NS(=O)(=O)c1ccc(-n2nc(CNCc3cc(F)ccc3F)nc2Cc2ccccc2)c(F)c1 [Example T-60, 4-(5-benzyl-3-{[(25-difluorobenzyl)amino]methyl}-1H-124-triazol-1-yl)-3-fluorobenzenesulfonamide]	57%	–
CC(C)OCCNCc1nc(Cc2ccccc2)n(-c2ccc(S(N)(=O)=O)cc2F)n1 [Example T-79, 4-(5-benzyl-3-{[(2-isopropoxyethyl)amino]methyl}-1H-124-triazol-1-yl)-3-fluorobenzenesulfonamide]	44%	–
Cc1cccc(CC(C)NCc2nc(Cc3ccccc3)n(-c3ccc(S(N)(=O)=O)cc3F)n2)n1 (stereo not shown) [Example T-78, 4-[5-benzyl-3-({[1-methyl-2-(6-methylpyridin-2-yl)ethyl]amino}methyl)-1H-124-triazol-1-yl]-3-fluorobenzenesulfonamide]	71%	–
NS(=O)(=O)c1ccc(-n2nc(CNC3Cc4ccccc4C3)nc2Cc2ccccc2)c(F)c1 [Example T-76, 4-{5-benzyl-3-[(23-dihydro-1H-inden-2-ylamino)methyl]-1H-124-triazol-1-yl}-3-fluorobenzenesulfonamide]	41%	–
Cc1cc(CNCc2nc(Cc3ccccc3)n(-c3ccc(S(N)(=O)=O)cc3F)n2)ccc1F [Example T-49, 4-(5-benzyl-3-{[(4-fluoro-3-methylbenzyl)amino]methyl}-1H-124-triazol-1-yl)-3-fluorobenzenesulfonamide]	49%	–
COC1COCCN(Cc2nc(Cc3ccccc3)n(-c3ccc(S(N)(=O)=O)cc3F)n2)C1 (stereo not shown) [Example T-40, 4-{5-benzyl-3-[(6-methoxy-14-oxazepan-4-yl)methyl]-1H-124-triazol-1-yl}-3-fluorobenzenesulfonamide]	49%	–
Cc1cccc(CCNCc2nc(Cc3ccccc3)n(-c3ccc(S(N)(=O)=O)cc3F)n2)c1 [Example T-66, 4-[5-benzyl-3-({[2-(3-methylphenyl)ethyl]amino}methyl)-1H-124-triazol-1-yl]-3-fluorobenzenesulfonamide]	52%	–
COC[C@H](C)NCc1nc(Cc2ccccc2)n(-c2ccc(S(N)(=O)=O)cc2F)n1 [Example T-80, 4-[5-benzyl-3-({[(1S)-2-methoxy-1-methylethyl]amino}methyl)-1H-124-triazol-1-yl]-3-fluorobenzenesulfonamide]	73%	–
COC[C@H]1CCC[C@H]1NCc1nc(Cc2ccccc2)n(-c2ccc(S(N)(=O)=O)cc2F)n1 [Example T-71, 4-[5-benzyl-3-({[(1R2S)-2-(methoxymethyl)cyclopentyl]amino}methyl)-1H-124-triazol-1-yl]-3-fluorobenzenesulfonamide]	47%	–
COc1cccc(CCNCc2nc(Cc3ccccc3)n(-c3ccc(S(N)(=O)=O)cc3F)n2)c1 [Example T-73, 4-[5-benzyl-3-({[2-(3-methoxyphenyl)ethyl]amino}methyl)-1H-124-triazol-1-yl]-3-fluorobenzenesulfonamide]	50%	–
CCCN(CC1CC1)C(=O)c1nc(Cc2ccccc2)n(-c2ccc(S(N)(=O)=O)cc2)n1 [Example R-5, 1-[4-(aminosulfonyl)phenyl]-5-benzyl-N-(cyclopropylmethyl)-N-propyl-1H-124-triazole-3-carboxamide]	–	inhibition at 0.1 µM [2, 4]: 100%; IC50 [2]: 2.18 nM; inhibition at 0.2 µM [3]: 66.4%; IC50 [3]: 167 nM
CCN(CCCCO)C(=O)c1nc(Cc2ccccc2)n(-c2ccc(S(N)(=O)=O)cc2)n1 [Example R-19, 1-[4-(aminosulfonyl)phenyl)-5-benzyl-N-ethyl-N-(4-hydroxybutyl)-1H-124-triazole-3-carboxamide]	–	inhibition at 0.1 µM [2, 4]: 99%; IC50 [2]: 3.55 nM; inhibition at 0.2 µM [3]: 50.2%; IC50 [3]: 306 nM
CN(CC(O)c1ccccc1)C(=O)c1nc(Cc2ccccc2)n(-c2ccc(S(N)(=O)=O)cc2)n1 (stereo not shown) [Example R-9, 1-[4-(aminosulfonyl)phenyl]-5-benzyl-N-(2-hydroxy-2-phenylethyl)-N-methyl-1H-124-triazole-3-carboxamide]	–	inhibition at 0.1 µM [2, 4]: 99%; inhibition at 0.1 µM ([2]; read-out: CA-II % at 100 nM): 99%; inhibition at 0.2 µM [3]: 58%; IC50 [3]: 198 nM
